Assay [1] relates to C. albicans standard strain SC5314. The assay can be described thus: Viability assay in liquid medium and colony formation on solid YPD. The class given is cell-based, Candida albicans. Conditions: various concentrations, exponential YPD liquid cultures. The source says:
FIG. 2. Viability assay in liquid medium of the C. albicans standard strain SC5314 to different concentrations of carnosic acid and propolis 1. As a positive control Amphotericin B was used. Due to the particular behaviour of the CAI-4 strain when carrying out MICs, it was decided to use the wild strain SC5314 ([…] parental), in order to validate the effect of the compounds of study on an international C. albicans reference strain. The assay followed the same procedure described in FIG. 1.
FIG. 3. Assay of macroscopic colony formation in solid YPD medium. The C. albicans standard strain SC5314 was used to the concentrations of carnosic acid and propolis 1 indicated. As a positive control Amphotericin B was used. For further details of methodology see FIG. 1.
Assays were carried out in liquid YPD medium (1% yeast extract, 2% peptone and 2% glucose) at 37° C. Initially the C. albicans strain CAI-4 was used, but as it presented growth problems during the calculation of the MIC, it was replaced by its parental (SC5314, wild type), widely used in the laboratory. […] The percentage of cell viability was determined by counting the number of viable cells in the solid YPD medium after incubation at 37° C. for 24-48 hours (FIG. 1). […]

In another assay the test system is SC5314 strain. The assay can be described thus: Cell morphology by optical microscopy. The class given is cell-based, Candida albicans. The source says: FIG. 5. Optical micrographs (100×) where it can be seen how the treatment with increasing doses of carnosic acid caused visible alterations in the cellular morphology, resulting in cells with a more swollen and deformed aspect, with increased birefringence and the apparent loss of ability to transition dimorphically to mycelial structures (hyphae).
FIG. 6. Optical micrographs (40×) taken in order to provide better visual field with higher cell density, using the same cultures as in FIG. 5. The presence of swollen cells is very significant in the image, with a carnosic acid concentration of 100 μg/ml.

The test system of assay [2] is C. albicans strain SC5314. The assay can be described thus: Yeast-hyphae dimorphic transition induced by human serum. The class given is cell-based, Candida albicans. Conditions: YPD plus human serum at 10%, 37° C., different concentrations. How it is done: FIG. 9. Effect of the addition of carnosic acid on the percentage of yeast-hyphae dimorphic transition in C. albicans induced by human serum at 37° C. Exponential cultures of strain SC5314 were centrifuged and resuspended in fresh YPD medium preheated at 37° C. Identical samples were treated with carnosic acid at the indicated concentrations, using an untreated sample and a sample maintained at 28° C. as controls. The percentage of germ tubes emission (first stage of the formation of hyphae) was calculated by direct microscopic count with a hemocytometer.
FIG. 10. Micrographs illustrating the effect of carnosic acid on the dimorphism of C. albicans. In the control assay with the lowest concentration of carnosic acid, a high percentage of filamentation (grouped hyphae forming a mycelium) which decreased proportionally with increasing dose of the latter, was observed.
These assays are also complemented with the evaluation of the influence on the morphology (dimorphism) of C. albicans. In FIGS. 9 and 10, the effect of the carnosic acid on the dimorphic transition of the strain SC5314 of C. albicans was explored, given that the yeast-mycelium dimorphic transition is considered to be a factor of virulence in this opportunistic pathogen. To do this, an “overnight” culture was […] to a low optical density (0.1) and left to grow to 0.3 at 37° C. […]

The subject of a further assay is CAI-4. The experiment in a line: MIC determination. The assay is classed as cell-based. Conditions: Candida albicans; strain CAI-4.
For another assay, the system named is C. albicans strain CAI-4. The assay can be described thus: Viability assay in liquid YPD medium and colony formation on solid YPD. Conditions: concentrations of 200 y 2000 μg/ml. The class given is cell-based, Candida albicans. How it is done: FIG. 1. Viability assay on liquid YPD medium (A) and colony formation on solid YPD medium (B) on C. albicans strain CAI-4 to different concentrations of carnosic acid, propolis 2 and 3. It started from a preinocolum culture incubated overnight at 28° C.; the next day refreshed in YPD medium to a D.O600 nm=0.3. The culture was allowed to grow to D.O600 nm=0.6 at 37° C., moment at which the compounds, object of the study, are added for one hour at the same temperature. Additionally, a positive control of antifungal activity with amphotericin B was included under the same conditions.
Assays were carried out in liquid YPD medium (1% yeast extract, 2% peptone and 2% glucose) at 37° C. Initially the C. albicans strain CAI-4 was used, but as it presented growth problems during the calculation of the MIC, it was replaced by its parental (SC5314, wild type), widely used in the laboratory. The procedure consisted of applying different concentrations of carnosic acid and propolis (one hour, unless other times are indicated) on exponential cultures of C. albicans grown in YPD. The percentage of cell viability was determined by counting the number of viable cells in the solid YPD medium after incubation at 37° C. for 24-48 hours (FIG. 1).

Assay [3] deals with parental strain SC5314. The assay can be described thus: MIC determination. The class given is cell-based. Conditions: Candida albicans.
In assay [4] the test system is parental strain SC5314. The assay can be described thus: Inhibition kinetics / synergy assay, liquid medium and colony formation on plate. The class given is cell-based, Candida albicans. The conditions noted are these: carnosic acid 50 μg/ml, propolis 3 200 μg/ml. How it is done:
FIG. 8. (A) Measurement of the kinetic growth in the parental strain SC5314. With regard to previous assays, the following modifications were used: (i) Reduction of the concentration of carnosic acid to 50 μg/ml, maintaining that of the propolis 3 (PP) at (200 μg/ml), in order to better monitor its effect on cell viability. […] (B) Assay of colony formation on plate.
Then, in strain SC5314, as it is a reference lineage, new experiments simultaneously measuring the kinetics of inhibition of cell viability at sub-inhibitory concentrations of the carnosic acid (up to 50 μg/ml) and propolis 3 (200 μg/ml) were conducted together with the synergy assays between the two. The tested aliquots come from a single initial exponential culture and, therefore, the physiological state of the cells is identical.

Assay [5] concerns C. albicans yeast (blastoconides) CAI-4. The experiment in a line: Cell morphology by optical microscopy (Nomarsky). The assay is classed as cell-based, Candida albicans. How it is done:
FIG. 4. Inspection of the cell morphology by optical microscopy, using the interference contrast of “Nomarsky” on C. albicans yeast (blastoconides) CAI-4, treated with: propolis 3 (200 μg/ml), carnosic acid (100 μg/ml) and the combination of both compounds.
As an essential tool in understanding the effectiveness of these compounds on C. albicans cell viability, detailed studies on the effects of their administration on the cell morphology of this opportunistic pathogen, visualized by optical microscopy, were performed (FIGS. 4, 5 and 6).

≈ marks a conversion by molar mass, not a printed value.

Turning to `CC(C)c1cc2c(c(O)c1O)[C@@]1(C(=O)O)CCCC(C)(C)[C@@H]1CC2` [carnosic acid], the cell viability result in assay [1] is given as “significant decrease in cell viability”. The cell morphology entry with SC5314 strain (100 μg/ml of carnosic acid, Nomarsky contrast) is “growing swelling”; with SC5314 strain (increasing concentration of carnosic acid), “swelling and deformation of the yeast cells”. For the same molecule, the “cells seen in micrograph (40×)” value with SC5314 strain (500 μg/ml) is “small number of cells”. Also, the “filamentation (yeast-mycelium dimorphic transition)” value in assay [2] was “reduced the filamentation of C. albicans in a dose-dependent way”. For the same molecule, the MIC against CAI-4 and with parental strain SC5314 [3] was 250 µg/mL (≈ 752 µM) throughout. Further, the antifungal effect entry in the assay with C. albicans strain CAI-4 was “strong antifungal effect”. Also, in the assay on parental strain SC5314 [4], the “antifungal action considered individually” value is listed as “strong antifungal action”. For the same molecule, the “growth on plate (FIG. 8)” value in the assay on parental strain SC5314 [4] (combination read at one hour) was “growth is visible”. Also, in assay [5] (more significant after five hours of treatment), the “effect on cell morphology” value is reported as “apparent cellular reduction of size (volume)”. Besides, the “cell morphology (FIG. 4 legend)” value in assay [5] (propolis 3 200 μg/ml, carnosic acid 100 μg/ml, and the combination) is on record as “significant reduction in cell size”.

These data come from patent publication US10272120B2, “Synergistic composition comprising propolis and carnosic acid for use in the prevention and treatment of candidiasis” (priority 2015, dated 2019).
